Key:
Format in all cases: cell-based
[1] = tested on: poly(ADP-ribose) polymerase (PARP); assay: Western blot analysis of PARP cleavage (apoptosis biomarker), MCF7; details: MCF7, high dose (10 μg/mL)
Protocol: (§1) The breast cancer cell line (MCF7) of Section 1-1, taken 4 days after irradiation exposure was applied to the cells, was washed with PBS, and the cell sample was subjected to protein extraction using a cell lysis buffer (50 mM Tri-HCl, 1% NP-40, 0.25% sodium deoxycholate, 150 mM NaCl, 1 mM PMSF, 50 mM NaF, 0.2 mM Na3VO4, 10 g/mL aprotinin, and 2 g/mL leupeptin). The extracted protein was centrifuged at 11,000 rpm for 10 min. The supernatant was collected and subjected to quantitative analysis using Bradford protein assay (Bradford, M., Anal. Biochem. 72:248-254 (1976)). […]
(§2) The procedure was performed in the same manner as in Section 1-6 of Example 1, except that the cell line with treatment of doxorubicin at a high dose and the cell line with treatment of doxorubicin at a low dose, each of which prepared in Section 4-1, were used. In order to confirm the occurrence of apoptosis, a level of poly(ADP-ribose) polymerase (PARP) serving as an apoptosis biomarker was detected according to Western blot analysis as in Section 1-6 of Example 1, except that polyclonal anti-PARP antibodies (Cell Signaling Technology, Mass., USA, Cat #9541) were used as primary antibodies.

[2] = tested on: eEF1A1 (eukaryotic elongation factor 1 alpha 1); assay: Western blot analysis of eEF1A1 level, MCF7
Protocol: (§3) The breast cancer cell line (MCF7) of Section 1-1, taken 4 days after irradiation exposure was applied to the cells, was washed with PBS, and the cell sample was subjected to protein extraction using a cell lysis buffer (50 mM Tri-HCl, 1% NP-40, 0.25% sodium deoxycholate, 150 mM NaCl, 1 mM PMSF, 50 mM NaF, 0.2 mM Na3VO4, 10 g/mL aprotinin, and 2 g/mL leupeptin). The extracted protein was centrifuged at 11,000 rpm for 10 min. The supernatant was collected and subjected to quantitative analysis using Bradford protein assay (Bradford, M., Anal. Biochem. 72:248-254 (1976)). 20 μg of the protein was added to 2× SDS loading buffer (60 mm Tris-Cl (pH 6.8), 25% glycerol, 2% SDS, 14.4 mM mercaptoethanol, and 0.1% bromophenol blue), and the mixture was heated at 95 for 5 min and subjected to electrophoresis on 8% SDS polyacrylamide gel at 80V for 2 hours. After the electrophoresis was complete, the separated protein was transferred to a nitrocellulose membrane (Whatman). The protein-transferred membrane was placed in a PBS solution containing 5% nonfat dry milk, and allowed to stand at room temperature for 1 hour to be blocked. Primary antibodies diluted to 1:1000 were added thereto, followed by reaction at 4 for 16 hours. The primary antibodies were polyclonal anti-eEF1A1 antibodies (Abcam, Mass., USA, Cat # ab37969 ) and anti-CD antibodies (Santa Cruz Biotechnology, Calif., USA, Cat # SC-6494 ). The secondary antibodies were horseradish peroxidase-conjugated anti-rabbit antibodies (GE healthcare, Backinghanshire, UK, Cat # NA934V). In addition, an enhanced chemiluminescence (ECL) reagent (Amersham Biosciences, Piscataway, N.J.) was used for confirmation of the reaction. Actin was used as an internal positive control, and primary antibodies were anti-actin antibodies (Santa Cruz Biotechnology, Calif., USA, Cat # SC-1616).
(§4) The signal intensity was scanned with HP Scanjet 2400 (Hewlett-Packard Company, Palo Alto, Calif., USA) and analyzed with ImageJ Program (http://rsb.info.nih.gov/ij/).
as §2
(§5) The procedure was performed in the same manner as in Section 1-6 of Example 1, except that the cell line prepared in Section 6-1 was used.
(§6) P-pRb and CDK2 were used as markers of G1/S phase transition arrest. Protein levels were confirmed by Western blot analysis in the same manner as in Section 1-6 of Example 1, except that primary antibodies directed against P-pRb were Phosphoro-pRb antibodies (Cell Signaling Technology, Danvers, Mass., Cat #9308), and primary antibodies directed against CDK2 were anti-CDK2 antibodies (Santa Cruze Biotechnology, Calif., USA, Cat #SC-163).
(§7) The procedure was performed in the same manner as in Section 1-6 of Example 1, except that the cell line prepared in Section 8-1 was used. In order to detect changes in levels of LC3-II which is an autophagy biomarker, anti-LC3-II antibodies (Sigma, Mo., USA, Cat #L8919) were used as primary antibodies directed against LC3-II.

[3] = tested on: breast cancer cell line (MCF7); assay: Senescence-associated β-galactosidase activity staining, MCF7
Protocol: The cells were washed twice with PBS and fixed with 3% formaldehyde at room temperature for 3 to 5 min. The fixed cells were washed once again with PBS, and 5 mL of a β-galactosidase activity staining solution (1 mg/mL X-Gal, 40 mM citric acid/sodium phosphate (pH 6.0), 5 mM potassium ferrocyanide, 5 mM potassium ferricyanide, 150 mM sodium chloride, and 2 mM magnesium chloride) was added thereto, followed by reaction in an incubator at 37 for 12 to 16 hours. During the reaction, the cells were cultured under light-shielding conditions by wrapping of the culture dish in silver foil.

[4] = tested on: CD (cathepsin D); assay: Western blot analysis of CD level, MCF7
Protocol: as §3, §4, §2, §5, §6, §7

[5] = tested on: CD (cathepsin D); assay: Western blot analysis of CD level, H460
Protocol: as §1
as §2, with “antibodies. […]” for “antibodies.”

[6] = tested on: breast cancer cell line (MCF7); assay: Microscopic examination of cell morphology, MCF7; details: for cell morphology: time course 0-96 hours
Protocol: In order to confirm premature senescence, characteristic morphological changes of cells in the control group and the breast cancer cell line 4 days after irradiation exposure thereof, each of which prepared in Section 1-1, were examined under a microscope (ECLIPSE TE300, Nikon).
In order to ascertain doxorubicin-induced senescence or apoptosis of a tumor cell line, the procedure was carried out in the same manner as in Section 1-2 of Example 1, except that the experiment was conducted according to a time-course schedule (0, 16, 24, 48, and 96 hours) using the cell line of Section 4-1.
Morphological changes of cells in the control group and the tamoxifen-treated group of Section 8-1 were examined under a microscope (ECLIPSE TE300, Nikon).

[7] = tested on: eEF1A1 (eukaryotic elongation factor 1 alpha 1); assay: Western blot analysis of eEF1A1 level, H460
Protocol: as §1
as §2, with “antibodies. […]” for “antibodies.”

[8] = tested on: lung cancer cell line H460; assay: Microscopic examination of cell morphology, H460; details: 96 hours
Protocol: In order to ascertain doxorubicin-induced senescence or apoptosis of a tumor cell line, the procedure was carried out in the same manner as in Section 1-2 of Example 1, except that the experiment was conducted 96 hours after treatment of doxorubicin on the cell line of Section 5-1.

[9] = tested on: CDK2; assay: Western blot analysis of CDK2 (G1/S arrest marker), MCF7; details: MCF7, double thymidine treatment (15 h, 0.5 mg/mL, 8 h interval), arrested
Protocol: as §3, with “The primary antibodies were polyclonal anti-eEF1A1 antibodies (Abcam, Mass., USA, Cat # ab37969 ) and anti-CD antibodies (Santa Cruz Biotechnology, Calif., USA, Cat # SC-6494 ). The secondary antibodies were horseradish peroxidase-conjugated anti-rabbit antibodies (GE healthcare, Backinghanshire, UK, Cat # NA934V). In addition, an enhanced chemiluminescence (ECL) reagent (Amersham Biosciences, Piscataway, N.J.) was used for confirmation of the reaction. Actin was used as an internal positive control, and primary antibodies were anti-actin antibodies (Santa Cruz Biotechnology, Calif., USA, Cat # SC-1616).” left out

[10] = tested on: P-pRb (phosphorylated retinoblastoma); assay: Western blot analysis of P-pRb (G1/S arrest marker), MCF7; details: MCF7, double thymidine treatment (15 h, 0.5 mg/mL, 8 h interval), arrested
Protocol: as §3, with “The primary antibodies were polyclonal anti-eEF1A1 antibodies (Abcam, Mass., USA, Cat # ab37969 ) and anti-CD antibodies (Santa Cruz Biotechnology, Calif., USA, Cat # SC-6494 ). The secondary antibodies were horseradish peroxidase-conjugated anti-rabbit antibodies (GE healthcare, Backinghanshire, UK, Cat # NA934V). In addition, an enhanced chemiluminescence (ECL) reagent (Amersham Biosciences, Piscataway, N.J.) was used for confirmation of the reaction. Actin was used as an internal positive control, and primary antibodies were anti-actin antibodies (Santa Cruz Biotechnology, Calif., USA, Cat # SC-1616).” left out

[11] = tested on: LC3-II; assay: Western blot analysis of LC3-II (autophagy biomarker), MCF7; details: MCF7, tamoxifen 10 μmol/L for 2 days
Protocol: as §3, with “The primary antibodies were polyclonal anti-eEF1A1 antibodies (Abcam, Mass., USA, Cat # ab37969 ) and anti-CD antibodies (Santa Cruz Biotechnology, Calif., USA, Cat # SC-6494 ). The secondary antibodies were horseradish peroxidase-conjugated anti-rabbit antibodies (GE healthcare, Backinghanshire, UK, Cat # NA934V). In addition, an enhanced chemiluminescence (ECL) reagent (Amersham Biosciences, Piscataway, N.J.) was used for confirmation of the reaction. Actin was used as an internal positive control, and primary antibodies were anti-actin antibodies (Santa Cruz Biotechnology, Calif., USA, Cat # SC-1616).” left out

[12] = MCF7, Day 4, Day 0=1, ImageJ scanning, dose not restated (senescence, low dose implied)
[13] = MCF7, high dose (10 μg/mL), apoptotic conditions
[14] = MCF7, low-dose doxorubicin (50 ng/mL)
[15] = H460, high-dose doxorubicin (10 μg/mL), apoptosis
[16] = H460, low-dose doxorubicin (50 ng/mL)
[17] = MCF7, camptothecin 40 nM, etoposide 30 μM
[18] = MCF7, double thymidine block, arrested at G1/S
[19] = MCF7, released from DTB, additional 48 h
[20] = MCF7, tamoxifen 10 μmol/L for 2 days, autophagy
[21] = MCF7, camptothecin 40 nM, etoposide 30 μM, control group (Con)=1

Compound: COc1cccc2c1C(=O)c1c(O)c3c(c(O)c1C2=O)C[C@@](O)(C(=O)CO)C[C@@H]3O[C@H]1C[C@H](N)[C@H](O)[C@H](C)O1 [doxorubicin]
- PARP cleavage (apoptotic marker) [1]: induced
- eEF1A1 band signal intensity, relative [2, 12]: 0.53
- protein level of eEF1A1 (Western blot) [2, 13]: remained unaltered
- level of eEF1A1 (Western blot) [2, 14]: decreases
- SA-β-gal staining ([3]; MCF7, 4 days after treatment of doxorubicin (50 ng/mL)): positive SA-β-gal staining
- CD band signal intensity, relative [4, 12]: 2.45
- protein level of CD (Western blot) [4, 13]: gradually decreased
- level of CD (Western blot) [4, 14]: increases
- level of CD (Western blot) [5, 15]: no changes
- level of CD (Western blot) [5, 16]: increases
- cell morphology ([6]; MCF7, high dose (10 μg/mL)): apoptosis-specific morphological changes
- cell morphology ([6]; MCF7, low dose (50 ng/mL)): senescence-specific morphological changes
- level of eEF1A1 (Western blot) [7, 15]: no changes
- level of eEF1A1 (Western blot) [7, 16]: decreases
- cell morphology ([8]; H460, high dose (10 μg/mL)): apoptosis-specific morphological changes
- cell morphology ([8]; H460, low dose (50 ng/mL)): senescence-specific morphological changes

Compound: COc1cc([C@@H]2c3cc4c(cc3[C@@H](O[C@@H]3O[C@@H]5CO[C@@H](C)O[C@H]5[C@H](O)[C@H]3O)[C@H]3COC(=O)[C@H]23)OCO4)cc(OC)c1O [etoposide]
- level of eEF1A1 (Western blot) [2, 17]: decreases
- level of CD (Western blot) [4, 17]: increases

Compound: Cc1cn([C@H]2C[C@H](O)[C@@H](CO)O2)c(=O)[nH]c1=O [DTB, thymidine]
- protein level of eEF1A1 (Western blot) [2, 18]: No significant alteration
- eEF1A1 level (Western blot) [2, 19]: did not exhibit any alteration
- protein level of CD (Western blot) [4, 18]: No significant alteration
- CD level (Western blot) [4, 19]: did not exhibit any alteration
- CDK2 level (Western blot) [9]: accumulation
- phosphorylated pRb level (Western blot) [10]: decrease

Compound: CC/C(=C(\c1ccccc1)c1ccc(OCCN(C)C)cc1)c1ccccc1 [tamoxifen]
- level of LC3-II (Western blot) [11]: increased level
- level of eEF1A1 (Western blot) [2, 20]: decreased
- level of CD (Western blot) [4, 20]: decreased
- cell morphology (autophagy) ([6]; MCF7, tamoxifen 10 μmol/L for 2 days): occurrence of autophagy

Compound: CC[C@@]1(O)C(=O)OCc2c1cc1n(c2=O)Cc2cc3ccccc3nc2-1 [camptothecin]
- level of eEF1A1 (Western blot) [2, 17]: decreases
- eEF1A1 band signal intensity, relative [2, 21]: 0.73
- senescence-associated β-galactosidase activity staining ([3]; MCF7, camptothecin 40 nM, etoposide 30 μM, versus control group): exhibited characteristics of premature senescence
- level of CD (Western blot) [4, 17]: increases
- CD band signal intensity, relative [4, 21]: 7.46

From patent publication US20100304409A1, “METHOD FOR DETECTING PREMATURE SENESCENCE IN TUMOR CELLS AND A KIT FOR DETECTING PREMATURE SENESCENCE IN TUMOR CELLS” (KOREA INSTITUTE OF RADIOLOGICAL & MEDICAL SCIENCES, priority 2009, published 2010)
